Measured values from PubChem BioAssay (NCI).
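1) Cells in 96-well plates. 2) Compound, 48 h, 5 concentrations. 3) Linear interpolation between surrounding doses. 4) Unreached endpoint = highest concentration. At the GI50, growth is halved. TGI: total growth inhibition.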

Legend:
Assay in all cases: NCI-60 cell line screen, 48 h
A498 renal = tested on: A498 renal
NCI-H226 lung = tested on: NCI-H226 lung
OVCAR-4 ovarian = tested on: OVCAR-4 ovarian
OVCAR-5 ovarian = tested on: OVCAR-5 ovarian
SF-268 CNS = tested on: SF-268 CNS
SN12C renal = tested on: SN12C renal
UACC-62 melanoma = tested on: UACC-62 melanoma
NCI-H460 lung = tested on: NCI-H460 lung
NCI-H522 lung = tested on: NCI-H522 lung
SF-295 CNS = tested on: SF-295 CNS

Compound | TGI (A498 renal) [µM] | TGI (NCI-H226 lung) [µM] | TGI (OVCAR-4 ovarian) [µM] | TGI (OVCAR-5 ovarian) [µM] | TGI (SF-268 CNS) [µM] | TGI (SN12C renal) [µM] | TGI (UACC-62 melanoma) [µM] | GI50 (A498 renal) [µM] | GI50 (NCI-H226 lung) [µM] | GI50 (NCI-H460 lung) [µM] | TGI (NCI-H460 lung) [µM] | GI50 (NCI-H522 lung) [µM] | TGI (NCI-H522 lung) [µM] | GI50 (OVCAR-4 ovarian) [µM] | GI50 (OVCAR-5 ovarian) [µM] | GI50 (SF-268 CNS) [µM] | TGI (SF-295 CNS) [µM] | GI50 (SN12C renal) [µM] | GI50 (UACC-62 melanoma) [µM] | GI50 (SF-295 CNS) [µM]
O=C(Nc1nc2ccc([N+](=O)[O-])cc2s1)C(=O)C(C(=O)c1ccncc1)C1OC(=O)c2ccccc21 (centres undefined) | > 100 | > 100 | > 100 | > 100 | > 100 | > 100 | > 100 |  |  |  |  |  |  |  |  |  |  |  |  | 
C=C1C(OC/C=C/COC2O[C@@H]3O[C@@]4(C)CC[C@H]5[C@H](C)CC[C@@H](C2=C)[C@@]35OO4)O[C@@H]2O[C@@]3(C)CC[C@H]4[C@H](C)CC[C@@H]1[C@@]24OO3 (some centres undefined) | > 100 | 33.5 | 26.2 | 18.8 | 30.9 | 46.5 | 69.1 | 26 | 4.32 | 5.18 | 27.2 | 5.17 | 69.6 | 0.741 | 0.0489 | 5.87 | 2.19 | 1.33 | 2.01 | 
CN(C)CCSCCO | > 100 | > 100 | > 100 | > 100 | > 100 | > 100 | > 100 |  |  |  | > 100 |  | > 100 |  |  |  | > 100 |  |  | 
O=C1C(=O)N(c2nccs2)C(=O)C(=O)C1c1nc2ccccc2s1 |  | > 100 | > 100 | > 100 | > 100 | > 100 | > 100 |  |  |  | > 100 |  |  |  |  |  | > 100 |  |  | 
COc1cc(C2CC(=O)Nc3c2ccc2ccccc32)cc(Br)c1OC (centres undefined) | 2.29 | > 100 | > 100 | > 79.3 | > 100 | > 43.6 |  | 0.272 | 6.4 | 0.368 | > 20.2 | 0.41 | 8.42 | 3.64 | 2.01 | 0.933 |  | 1.36 | 0.54 | 0.316
O=C1c2ccccc2-c2c1c1ccc([N+](=O)[O-])cc1c(=O)n2CCCNCCO | 3.75 | 3.65 | 2.77 | 1.92 | 1.99 | 2.07 | 1.85 | 1.39 | 1.01 | 0.025 | 0.343 | 0.154 | 1.91 | 0.492 | 0.52 | 0.148 | 1.44 | 0.287 | 0.372 | 0.0729
S=c1sc2cscc2s1 | > 100 | 49.5 | 33 | > 100 | 64.5 | > 100 | 34 |  |  |  | 53.8 |  | 36.7 |  |  |  | > 100 |  |  | 
O=C(NC1C2CC3CC(C2)CC1C3)/C(Cl)=C1/Sc2ccccc2NC1=O (centres undefined) | > 100 | > 100 | > 100 | > 100 | > 100 | > 100 | > 100 |  |  |  | > 100 |  | > 100 |  |  |  | > 100 |  |  | 
OCC(O)C(O)C(O)c1nn(-c2ccccc2)c2nc3cc(Cl)c(Cl)cc3nc12 (centres undefined) |  | > 100 | > 100 | 83.6 | > 100 | > 100 | > 100 |  |  |  | > 100 |  | > 100 |  |  |  | > 100 |  |  | 
Cc1cnccc1N=Nc1ccc(N(C)C)cc1 | 94.1 | 29.1 | 61.2 | > 100 | 56.5 | 72.6 | 40.7 |  |  |  | > 100 |  |  |  |  |  | 57.5 |  |  | 
COc1ccc2c(CCNC(=O)/C=C/c3ccccc3)c(C(C)=O)[nH]c2c1[N+](=O)[O-] | 76.5 | 46.7 | > 100 |  | 9.08 | > 100 | 36.1 |  |  |  | > 100 |  | 18.9 |  |  |  | 12.7 |  |  | 
O=C(O)c1ccccc1N=Nc1ccc2oc(=O)c(C(=O)Nc3ccccc3)cc2c1 |  | > 100 |  |  |  | > 100 | 71.1 |  |  |  | > 100 |  | > 100 |  |  |  | > 100 |  |  | 
O=c1cccccc1[O-].O=c1cccccc1[O-].O=c1cccccc1[O-].[Ce+3] | > 100 | > 100 | 76.7 | > 100 |  | > 100 | 40.4 | 30.8 |  |  | > 100 |  | 44.1 |  |  |  | 78.1 | 25.7 |  | 
Cc1ccccc1C(=O)Oc1ccc(OCc2ccccc2)cc1 | > 100 |  | > 100 | > 100 | > 100 | > 100 | > 100 |  |  |  | > 100 |  |  |  |  |  | > 100 |  |  | 
COC12CCC(C(C(=O)c3ccccc3)=C1C(=O)c1ccccc1)C(O)C2 (centres undefined) | > 100 | > 100 | > 100 |  | > 100 | > 100 | > 100 |  |  |  |  |  | > 100 |  |  |  | > 100 |  |  | 
O=C(CCSc1ccnc2c(C(F)(F)F)cccc12)N/N=C/c1cc(Cl)c(Cl)cc1Cl |  | 39.3 | 64.2 | 64.6 | 50.3 | 34.1 | 39.7 |  | 17.6 | 25.4 | 54.5 | 31.6 | > 100 | 25.4 | 26.1 | 23.2 | 62.3 | 18 | 15.4 | 26.4
CCOC(=O)c1ccc(N2C(=O)Cc3ccccc3C2=O)cc1 |  | > 100 |  | > 100 | > 100 | > 100 | > 100 |  |  |  |  |  |  |  |  |  | > 100 |  |  | 
CC1(C(=O)O)CCOc2ccccc21 (centres undefined) | > 100 | > 100 | > 100 | > 100 | > 100 | > 100 | > 100 |  |  |  | > 100 |  |  |  |  |  | > 100 |  |  | 
O=S(=O)(NC1=NCCN1C(=S)SN1CCn2c1nsc2=S)c1ccccc1Cl | 59 | > 100 | > 100 | 27.7 | 87.6 | > 100 | 44.1 | 24.6 | 35.7 |  |  | 6.08 | 21.9 | 15.6 | 12.2 | 13.3 | 61 | 31.6 | 19.3 | 21.4
NCc1c(C(N)=O)ncn1Cc1ccccc1 | > 100 |  | > 100 |  |  | > 100 | > 100 |  |  |  | > 100 |  |  |  |  |  | > 100 |  |  | 
